Test results reported in publication PMC10185535, “Structural insights into cardiolipin replacement by phosphatidylglycerol in a cardiolipin-lacking yeast respiratory supercomplex” (Nature Communications, 2023).

Columns and labels:
[1] = system: T1, WT SC (IV1III2IV1; III2IV2 tetrameric respiratory supercomplex); test: cryo-EM structure […] Å; assay type: binding, Saccharomyces cerevisiae; settings: Qi and Qo sites of complex III; Cob, Rip1 His181 (Qo); copurified endogenous
T1 construct: gene COB; native tetramer (complex III dimer flanked by two complex IV), digitonin extract of mitochondria, FoF1-ATPase removed, sucrose gradient; no tag on the supercomplex; with Cytochrome b-c1 complex subunit 2, mitochondrial; Cytochrome b-c1 complex subunit 6, mitochondrial; Cytochrome b-c1 complex subunit 9, mitochondrial; Cytochrome b-c1 complex subunit 10, mitochondrial; Cytochrome c oxidase subunit 2; Cytochrome c oxidase subunit 3; Cytochrome c oxidase subunit 4, mitochondrial; Cytochrome c oxidase subunit 5A, mitochondrial; Cytochrome c oxidase subunit 6, mitochondrial; Cytochrome c oxidase subunit 7, mitochondrial; Cytochrome c oxidase subunit 8, mitochondrial; Cytochrome c oxidase subunit 9, mitochondrial; Cytochrome c oxidase subunit 12, mitochondrial; Cytochrome c oxidase subunit 13, mitochondrial; Cytochrome c oxidase subunit 26, mitochondrial

[2] = system: T2, CRD1∆ SC (III2IV1 trimeric respiratory supercomplex); test: cryo-EM structure […] Å; assay type: binding, Saccharomyces cerevisiae; settings: Qi sites of complex III only (Cob); endogenous
T2 construct: gene COB; native trimer (complex III dimer plus one complex IV) from cardiolipin-lacking strain, Cox4 with C-terminal His10, subunit Qcr10 lost; digitonin, His-Trap and SEC; with Cytochrome b-c1 complex subunit 1, mitochondrial; Cytochrome b-c1 complex subunit 2, mitochondrial; Cytochrome b-c1 complex subunit 6, mitochondrial; Cytochrome b-c1 complex subunit 7, mitochondrial; Cytochrome b-c1 complex subunit 9, mitochondrial; Cytochrome c oxidase subunit 2; Cytochrome c oxidase subunit 3; Cytochrome c oxidase subunit 4, mitochondrial; Cytochrome c oxidase subunit 6, mitochondrial; Cytochrome c oxidase subunit 7, mitochondrial; Cytochrome c oxidase subunit 8, mitochondrial; Cytochrome c oxidase subunit 9, mitochondrial; Cytochrome c oxidase subunit 12, mitochondrial; Cytochrome c oxidase subunit 13, mitochondrial; Cytochrome c oxidase subunit 26, mitochondrial

[3] = system: T2, CRD1∆ SC (III2IV1 trimeric respiratory supercomplex); test: oxygen consumption, Oroboros respirometry; assay type: biochemical, Saccharomyces cerevisiae; settings: 100 μM DQH2, 50 μM cytochrome c, 0.05% digitonin, pH 7.1, 30 °C
[4] = system: T1, WT SC (IV1III2IV1; III2IV2 tetrameric respiratory supercomplex); test: oxygen consumption, Oroboros respirometry; assay type: biochemical, Saccharomyces cerevisiae; settings: 100 μM DQH2, 50 μM cytochrome c, 0.05% digitonin, pH 7.1, 30 °C
[5] = molecular target: complex III2 (CIII) of the trimeric supercomplex (III2IV1) from the cardiolipin-lacking CRD1∆ S. cerevisiae mutant (S. cerevisiae (endogenous in strain YEB100)) (UniProt P07256); test: cryo-EM structure; trimeric SC (III2IV1) from the CRD1∆ strain, purified by His-Trap (Cox4-His10) and Superose 6 in 0.05% digitonin; Titan Krios, with added 30° tilt data; 3.3 Å
[6] = molecular target: complex III2 (CIII, dimer of cytochrome bc1) of the wild type S. cerevisiae respiratory supercomplex (S. cerevisiae (endogenous in strain USY00b)) (UniProt P07256); test: cryo-EM structure; WT tetrameric SC (IV1III2IV1) purified by sucrose gradient in digitonin, diluted 1:9 in 15 mM Tris-HCl pH 7.2, 20 mM KCl; Titan Krios 300 kV; 3.2 Å
Cor1, subunit of CIII = molecular target: T3, Cor1, subunit of CIII (S. cerevisiae (endogenous in strain …, UniProt P07256 27-457)); test: as above; settings: both partners purified
T3 construct: Cor1, subunit of complex III, S. cerevisiae; source: endogenous, mitochondria of S. cerevisiae strain USY00b; within the purified III2IV2 SC (sucrose gradient)
T3 sequence (looked up): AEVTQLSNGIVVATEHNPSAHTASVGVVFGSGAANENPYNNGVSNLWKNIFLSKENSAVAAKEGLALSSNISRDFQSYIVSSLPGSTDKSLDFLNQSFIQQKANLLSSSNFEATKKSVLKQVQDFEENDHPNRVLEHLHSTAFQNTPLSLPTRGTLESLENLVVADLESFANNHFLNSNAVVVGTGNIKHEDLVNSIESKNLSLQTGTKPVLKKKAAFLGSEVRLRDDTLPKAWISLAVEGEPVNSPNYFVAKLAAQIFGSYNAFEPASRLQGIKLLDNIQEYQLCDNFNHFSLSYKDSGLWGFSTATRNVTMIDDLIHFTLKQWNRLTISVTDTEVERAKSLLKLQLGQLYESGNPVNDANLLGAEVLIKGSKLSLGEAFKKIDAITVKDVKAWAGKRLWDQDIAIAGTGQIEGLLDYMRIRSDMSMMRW

Molecule: COC1=C(OC)C(=O)C(C/C=C(\C)CC/C=C(\C)CC/C=C(\C)CC/C=C(\C)CC/C=C(\C)CCC=C(C)C)=C(C)C1=O [UQ6]
- cryo-EM structure 3.2 Å [1]: four UQ6 ligands were placed into the map, two in each monomer of CIII
- cryo-EM structure 3.3 Å [2]: Densities for UQ6 were found only at Qi sites

Molecule: CCCCCCCCCCc1c(C)c(O)c(OC)c(OC)c1O [reduced decylubiquinone]
- oxygen consumption, Oroboros respirometry [3]: Due to limited amounts of the ∆CRD1 SC, only one determination was possible
- oxygen consumption, Oroboros respirometry [4]: purified WT SC supplemented with Cyt c and reduced decylubiquinone (DQH2) also displayed similar activity

Molecule: complex III2 (CIII) of the trimeric supercomplex (III2IV1) from the cardiolipin-lacking CRD1∆ S. cerevisiae mutant (from UniProt P07256 27-457; P00163 1-385; P07143 62-309; P08067 31-215; P00128 1-127; P08525 1-94; P22289 1-66)
- stoichiometry N [5]: 2

Molecule: complex III2 (CIII, dimer of cytochrome bc1) of the wild type S. cerevisiae respiratory supercomplex (from UniProt P07256 27-457; P00163 1-385; P07143 62-309; P08067 31-215; P00128 1-127; P08525 1-94; P22289 1-66; P37299 1-77)
- stoichiometry N [6]: 2

B1: Cox5a, subunit of CIV (natural protein, UniProt P00424 21-153, looked up)
chain: AQTHALSNAAVMDLQSRWENMPSTEQQDIVSKLSERQKLPWAQLTEPEKQAVWYISYGEWGPRRPVLNKGDSSFIAKGVAAGLLFSVGLFAVVRMAGGQDAKTMNKEWQLKSDEYLKSKNANPWGGYSQVQSK
notes: Cox5a, subunit of complex IV, S. cerevisiae; source: endogenous, mitochondria of S. cerevisiae strain USY00b; within the purified III2IV2 SC (sucrose gradient)
- binding result (Cor1, subunit of CIII): binds
